BigSolDB 2.1

Nc1nc(NC2CC2)c2ncn([C@H]3C=C[C@@H](CO)C3)c2n1
solubility (mole fraction)
Details	278.15 K	283.15 K	288.15 K	293.15 K	298.15 K	303.15 K	308.15 K	313.15 K	318.15 K	323.15 K
in acetone	0.00115	0.00123	0.00131	0.00142	0.00155	0.00169	0.00183	0.00205	0.00225	0.00247
in ethanol	0.00601	0.00651	0.00716	0.00803	0.00903	0.0104	0.0123	0.0142	0.0162	0.0184
in ethyl acetate	0.000631	0.000705	0.000796	0.000906	0.00102	0.00112	0.00127	0.00147	0.00168	0.00192
in isobutanol	0.00772	0.00823	0.00896	0.0101	0.0113	0.0121	0.0131	0.0144	0.0164	0.0182
in isopropanol	0.00451	0.00483	0.00534	0.006	0.00655	0.00744	0.00855	0.0096	0.0111	0.0123
in methanol	0.00623	0.00688	0.00825	0.00965	0.0109	0.0126	0.0147	0.0181	0.0209	0.0241
in methyl acetate	0.000901	0.00101	0.0011	0.00123	0.0014	0.00156	0.00176	0.00206	0.0023	0.0026
in n-butanol	0.00718	0.00798	0.0089	0.0103	0.0117	0.0133	0.0155	0.0177	0.0204	0.0231
in n-pentanol	0.00898	0.0106	0.012	0.0134	0.0153	0.0169	0.0195	0.0226	0.0248	0.0277
in n-propanol	0.00798	0.0087	0.00952	0.0107	0.0119	0.0136	0.0159	0.0184	0.0211	0.024
in sec-butanol	0.00768	0.00844	0.00927	0.0104	0.0118	0.0134	0.015	0.0172	0.0197	0.0222
in water	0.000239	0.000266	0.000295	0.000334	0.000386	0.000436	0.0005	0.000547	0.000649	0.000748
